Results reported in patent US20020035061A1, “COMPOSITIONS AND METHODS FOR TREATING INFECTIONS USING CATIONIC PEPTIDES ALONE OR IN COMBINATION WITH ANTIBIOTICS” (priority 1996, published 2002).
Read-outs that look alike come from different tables or passages of the source.

How the values were obtained:
Format in all cases: cell-based
[1] = tested on: P. aeruginosa
[2] = tested on: E. faecium
[3] = tested on: S. marcescens
[4] = tested on: A. calcoaceticus
[5] = tested on: S. aureus
[6] = tested on: E. cloacae
[7] = tested on: S. epidermidis
[8] = tested on: E. faecalis
[9] = tested on: S. maltophilia
[10] = tested on: E. coli
[11] = tested on: K. pneumoniae
[12] = tested on: bacterial isolates; test: microbe, parasite or virus in culture; details: combination with Ciprofloxacin

| Sequence | MIC ([2]; E. faecium strain EFM003) [µg/mL] | MIC ([4]; A. calcoaceticus strain AC002) [µg/mL] | MIC ([5]; S. aureus strain SA009) [µg/mL] | MIC ([6]; E. cloacae strain ECL007) [µg/mL] | MIC ([8]; E. faecalis strain EFS002) [µg/mL] | MIC ([9]; S. maltophilia strain SMA002) [µg/mL] | MIC ([11]; K. pneumoniae strain KP001) [µg/mL] | MIC ([4]; A. calcoaceticus strain AC001) [µg/mL] | MIC ([9]; S. maltophilia strain SMA001) [µg/mL] | MIC ([10]; E. coli strain ECO003) [µg/mL] | MIC ([11]; K. pneumoniae strain KP002) [µg/mL] | MIC ([3]; S. marcescens strain SMS004) [µg/mL] | also measured |
| --- | --- | --- | --- | --- | --- | --- | --- | --- | --- | --- | --- | --- | --- |
| ILKKFPFWPWRRK [MBI 11A7CN] | 2 | 4 | 2 | >128 | 16 | 64 | 8 | – | – | – | – | – | MIC ([1]; P. aeruginosa strain PA004): >128 µg/mL; MIC ([3]; S. marcescens strain SMS003): >128 µg/mL; MIC ([5]; S. aureus strain SA014): 4 µg/mL; MIC ([5]; S. aureus strain SA093): 1 µg/mL; MIC ([7]; S. epidermidis strain SE010): 4 µg/mL; MIC ([8]; E. faecalis strain EFS001): 2 µg/mL; MIC ([8]; E. faecalis strain EFS008): 4 µg/mL; MIC ([10]; E. coli strain ECO005): 8 µg/mL |
| ILKKFPWFPWRRK [MBI 11A6CN] | – | 2 | – | >128 | – | 128 | 32 | – | – | – | – | – | MIC ([1]; P. aeruginosa strain PA004): >128 µg/mL; MIC ([2]; E. faecium EFM003): 2 µg/mL; MIC ([3]; S. marcescens strain SMS003): >128 µg/mL; MIC ([5]; S. aureus SA016): 2 µg/mL; MIC ([5]; S. aureus strain SA014): 4 µg/mL; MIC ([5]; S. aureus strain SA093): 0.5 µg/mL; MIC ([7]; S. epidermidis strain SE010): 4 µg/mL; MIC ([8]; E. faecalis EFS004): 64 µg/mL; MIC ([8]; E. faecalis strain EFS001): 1 µg/mL; MIC ([8]; E. faecalis strain EFS008): 8 µg/mL; MIC ([10]; E. coli strain ECO005): 16 µg/mL |
| ILKKIPIIPIRRK [MBI 11A2CN] | 16 | – | – | >128 | >128 | – | – | >128 | >128 | >128 | >128 | – | MIC ([1]; P. aeruginosa strain PA004): >128 µg/mL; MIC ([3]; S. marcescens strain SBS003): >128 µg/mL; MIC ([5]; S. aureus strain SA004): 8 µg/mL; FIC ([12]; S. aureus SA014): 1.00; FIC ([12]; S. aureus SA093): 0.75 |
| ILKKNPNNPNRRK [MBI 11M8] | – | – | – | – | – | – | – | – | – | – | – | – | MIC ([2]; E. faecium EFM002): 32 µg/mL; MIC ([5]; S. aureus SA008): 32 µg/mL; MIC ([8]; E. faecalis EFS002): 32 µg/mL |
| ILKKPWWPWRRK [MBI 11G3CN] | – | – | 8 | >128 | 64 | – | >128 | – | >128 | 64 | – | >128 | MIC ([1]; P. aeruginosa strain PA003): >128 µg/mL; MIC ([2]; E. faecium strain EFM002): 32 µg/mL |
| ILKKWAWWPWRRK [MBI 11C3CN] | – | 4 | – | >128 | 32 | 64 | 128 | – | – | – | – | >128 | MIC ([1]; P. aeruginosa strain PA005): >128 µg/mL; MIC ([2]; E. faecium strain EFM002): 1 µg/mL; MIC ([5]; S. aureus strain SA005): 2 µg/mL; MIC ([7]; S. epidermidis strain SE002): 2 µg/mL; MIC ([10]; E. coli strain ECO002): 16 µg/mL |
| ILKKWPWPWRRK [MBI 11A4CN] | – | 8 | – | >128 | 64 | >128 | >128 | – | – | 32 | – | >128 | MIC ([1]; P. aeruginosa strain PA004): >128 µg/mL; MIC ([2]; E. faecium strain EFM001): 32 µg/mL; MIC ([5]; S. aureus strain SA005): 2 µg/mL; MIC ([7]; S. epidermidis strain SE002): 8 µg/mL |
| ILKKWPWW PWKKK [MBI 11B10CN] | 4 | 2 | – | >128 | 64 | 128 | 32 | – | – | – | – | – | MIC ([1]; P. aeruginosa strain PA004): >128 µg/mL; MIC ([3]; S. marcescens strain SMS003): >128 µg/mL; MIC ([5]; S. aureus strain SA008): 2 µg/mL; MIC ([5]; S. aureus strain SA014): 4 µg/mL; MIC ([5]; S. aureus strain SA093): 1 µg/mL; MIC ([7]; S. epidermidis strain SE010): 4 µg/mL; MIC ([8]; E. faecalis strain EFS001): 8 µg/mL; MIC ([8]; E. faecalis strain EFS008): 64 µg/mL; MIC ([10]; E. coli strain ECO005): 16 µg/mL |
| ILKKWPWWAWRRK [MBI 11C4CN] | 2 | 4 | 4 | >128 | 32 | 64 | >128 | – | – | – | – | >128 | MIC ([1]; P. aeruginosa strain PA005): >128 µg/mL; MIC ([7]; S. epidermidis strain SE002): 4 µg/mL; MIC ([10]; E. coli strain ECO005): 32 µg/mL |
| ILKKWPWWPRRK [MBI 11G6CN] | 4 | – | – | >128 | 128 | – | >128 | >128 | >128 | – | – | – | MIC ([1]; P. aeruginosa strain PA004): >128 µg/mL; MIC ([3]; S. marcescens strain SMS003): >128 µg/mL; MIC ([5]; S. aureus strain SA006): 2 µg/mL; MIC ([7]; S. epidermidis strain SE002): 8 µg/mL; MIC ([10]; E. coli strain ECO002): 32 µg/mL |
| ILKKWPWWPWR [MBI 11G14CN] | – | 8 | – | >128 | 32 | 128 | – | – | – | 32 | 128 | >128 | MIC ([1]; P. aeruginosa strain PA006): >128 µg/mL; MIC ([2]; E. faecium strain EFM001): 16 µg/mL; MIC ([5]; S. aureus strain SA013): 0.5 µg/mL; MIC ([7]; S. epidermidis strain SE002): 8 µg/mL |
| ILKKWPWWPWRPMILKKAGS [MBI 11D5CN] | 1 | – | – | >64 | 16 | – | >64 | >64 | 64 | 64 | – | >64 | MIC ([1]; P. aeruginosa strain PA003): >64 µg/mL; MIC ([5]; S. aureus strain SA005): 8 µg/mL |
| ILKKWPWWPWRRIMILKKAGS [MBI 11D6CN] | 1 | 4 | 8 | >32 | 4 | – | – | – | >64 | – | >64 | >64 | MIC ([1]; P. aeruginosa strain PA024): >64 µg/mL; MIC ([7]; S. epidermidis strain SE010): 4 µg/mL; MIC ([10]; E. coli strain ECO002): 32 µg/mL |
| ILKKWPWWPWRRK [MBI 11E1CN] | – | – | – | >128 | 8 | – | – | 32 | 64 | 8 | 39 | – | MIC ([1]; P. aeruginosa strain PA003): 128 µg/mL; MIC ([2]; E. faecium strain EFM001): 8 µg/mL; MIC ([3]; S. marcescens strain SMS003): >128 µg/mL; MIC ([5]; S. aureus strain SA006): 1 µg/mL |
| ILKKWPWWPWRRK [MBI 11E2CN] | – | 4 | – | >128 | 32 | – | – | – | 64 | – | 64 | >128 | MIC ([1]; P. aeruginosa strain PA001): >128 µg/mL; MIC ([2]; E. faecium strain EFM001): 16 µg/mL; MIC ([5]; S. aureus strain SA016): 2 µg/mL; MIC ([7]; S. epidermidis strain SE010): 4 µg/mL; MIC ([10]; E. coli strain ECO002): 8 µg/mL |
| ILKKWPWWPWRRK [MBI 11] | – | – | – | – | – | – | – | – | – | – | – | – | MIC ([1]; P. aeruginosa PA004): >128 µg/mL; MIC ([2]; E. faecium EFM003): 4 µg/mL; MIC ([3]; S. marcescens SMS004): >128 µg/mL; MIC ([4]; A. calcoaceticus AC002): 8 µg/mL; MIC ([5]; S. aureus SA004): 4 µg/mL; MIC ([6]; E. cloacae ECL007): >128 µg/mL; MIC ([8]; E. faecalis EFS002): 64 µg/mL; MIC ([9]; S. maltophilia SMA002): 128 µg/mL; MIC ([10]; E. coli ECO002): 64 µg/mL; MIC ([11]; K. pneumoniae KP001): 128 µg/mL |
| ILKKWPWWPWRRKMILKKAGS [MBI 11D4CN] | – | – | 4 | >64 | 16 | – | – | >64 | >64 | 64 | >64 | >64 | MIC ([1]; P. aeruginosa strain PA004): >64 µg/mL; MIC ([2]; E. faecium strain EFM002): 1 µg/mL |
| ILKKWPWWVWRRK [MBI 11F2CN] | – | 4 | – | – | 32 | 64 | – | – | – | – | 128 | >128 | MIC ([1]; P. aeruginosa strain PA005): >128 µg/mL; MIC ([2]; E. faecium strain EFM002): 4 µg/mL; MIC ([5]; S. aureus strain SA012): 4 µg/mL; MIC ([7]; S. epidermidis strain SE002): 4 µg/mL; MIC ([10]; E. coli strain ECO002): 8 µg/mL |
| ILKKWPWWWRK [MBI 11D15CN] | 4 | – | 8 | – | 32 | – | – | – | – | – | – | – | – |
| ILKKWWWPWRK [MBI 11D14CN] | 1 | – | 4 | – | 32 | – | – | – | – | – | – | – | – |
| ILKKYPWYPWRRK [MBI 11A5CN] | 4 | – | – | >128 | 32 | >128 | >128 | >128 | – | 128 | – | – | MIC ([1]; P. aeruginosa strain PA003): >128 µg/mL; MIC ([3]; S. marcescens strain SMS003): >128 µg/mL; MIC ([5]; S. aureus strain SA002): 16 µg/mL |
| ILKWPWWPWRRK [MBI 11B3CN] | – | – | – | >128 | – | 32 | – | 64 | – | – | 64 | >128 | MIC ([1]; P. aeruginosa strain PA003): >128 µg/mL; MIC ([2]; E. faecium strain EFM001): 8 µg/mL; MIC ([5]; S. aureus strain SA010): 4 µg/mL; MIC ([8]; E. faecalis strain EFS001): 16 µg/mL; MIC ([10]; E. coli strain ECO002): 16 µg/mL |
| ILRRWPWWPWRK [MBI 11B2CN] | – | – | – | >128 | – | 64 | – | 64 | – | 16 | 64 | >128 | MIC ([1]; P. aeruginosa strain PA003): >128 µg/mL; MIC ([2]; E. faecium strain EFM001): 8 µg/mL; MIC ([5]; S. aureus strain SA005): 2 µg/mL; MIC ([8]; E. faecalis strain EFS004): 8 µg/mL |
| PWWPWRRK [MBI 11D3CN] | 8 | – | 8 | >128 | 32 | – | – | >128 | 64 | – | >128 | >128 | MIC ([1]; P. aeruginosa strain PA024): >128 µg/mL; MIC ([10]; E. coli strain ECO002): 64 µg/mL |
